Experiments:
GSK3α = GSK3α (Homo sapiens, UniProt P49840); experiment: In vitro kinase specificity profiling for GSK3α; type: biochemical
CMET = CMET (Homo sapiens, UniProt P08581); experiment: In vitro kinase specificity profiling; type: biochemical
PD-L1 = PD-L1 phosphorylation sites by mass spectrometry in HEK293T cells transfected with Flag-PD-L1; type: cell-based, human; details: Flag-PD-L1, 10 μM ES-072 48 h, MS-MS
Procedure: Fig. 2 Phosphorylation on S279/S283 impairs the stability of PD-L1. a Mapping PD-L1 phosphorylation sites following ES-072 treatment. HEK293T cells were transfected with Flag-PD-L1 and treated with 10 μM ES-072 for 48 h. Immunoprecipitated PD-L1 was analyzed by mass spectrometry following phosphopeptide enrichment. Peptide ionization data corresponding to Ser279/283 are shown. b Schematic diagram of phosphorylated sites on PD-L1. Full-length PD-L1 was separated into an extracellular domain (ECD) and intracellular domain (ICD). SP: signal peptide; TM: transmembrane domain. c Schematic diagram of phosphorylated sites, S279 and S283 in the ICD of PD-L1. Positions of phosphorylated sites were labeled in red. This image was created by the first author. d Immunoblots of PD-L1 (anti-Flag) in HEK293T cells transfected with Flag-PD-L1 (WT) or Flag-PD-L1 (mutants) following treatment with 25 ng/mL EGF and/or 10 μM ES-072 for 48 h, 2SA represents S279A/S283A. e Immunoblots of PD-L1 (anti-Flag) in HEK293T cells transfected with Flag-PD-L1 (WT/2SA) following treatment with 20 μg/mL cycloheximide (CHX) for indicated times. f Immunoblots of H1975 cell lysates following ES-072 treatment for 2 h, at indicated doses. g HEK293T cells were transfected with Flag-PD-L1 (WT/2SA) following treatment with 10 μM ES-072 for 2 h; PD-L1 was immunoprecipitated with anti-Flag and immunoblotted with indicated antibodies. Flag-tagged empty vector (Flag-EV) was transfected as a negative control. h Representative images of p-PD-L1 (Ser279) and PD-L1 immunohistochemistry (IHC) staining from EGFR wild-type vs. mutant human alveolar adenocarcinoma specimens. Scale bars represent 50 μm. i, j Quantification of IHC analysis for p-PD-L1 (Ser279) (i) and PD-L1 (j) in h. Data represent means ± SEM, n = 7 (i), n = 5 (j), **P < 0.01, P = 0.0013 (i); P = 0.002 (j). k Immunoblottings of p-PD-L1 (Ser279) and PD-L1 in EGFR wild-type (n = 4) vs. mutant (n = 4) human lung adenocarcinoma specimens. Source data are provided as a Source Data file.
Flag-tagged PD-L1 was overexpressed in HEK293T cells and were trypsin-digested. PD-L1 was immunoprecipitated with beads following immunoprecipitation. The resulting peptides were subjected to the phosphopeptide enrichment using TiO2 beads. The enriched phospho-peptides were analyzed on the Q Exactive™ HF mass spectrometer (Thermo Fisher Scientific). The identification and quantification of phosphorylated peptides were done by MaxQuant. The tandem mass spectra were searched against the UniProt human protein database together with a set of commonly observed contaminants. The precursor mass tolerance was set as 20 p.p.m. and the fragment mass tolerance was set as 0.1 Da. The […] cysteine carbamide methylation was set as a static modification and the methionine oxidation, as well as serine, threonine, and tyrosine phosphorylation, were set as variable modifications. The false discovery rate (FDR) at peptide spectrum match level was controlled below 1%.

Chain of GSK3α (P49840 whole entry): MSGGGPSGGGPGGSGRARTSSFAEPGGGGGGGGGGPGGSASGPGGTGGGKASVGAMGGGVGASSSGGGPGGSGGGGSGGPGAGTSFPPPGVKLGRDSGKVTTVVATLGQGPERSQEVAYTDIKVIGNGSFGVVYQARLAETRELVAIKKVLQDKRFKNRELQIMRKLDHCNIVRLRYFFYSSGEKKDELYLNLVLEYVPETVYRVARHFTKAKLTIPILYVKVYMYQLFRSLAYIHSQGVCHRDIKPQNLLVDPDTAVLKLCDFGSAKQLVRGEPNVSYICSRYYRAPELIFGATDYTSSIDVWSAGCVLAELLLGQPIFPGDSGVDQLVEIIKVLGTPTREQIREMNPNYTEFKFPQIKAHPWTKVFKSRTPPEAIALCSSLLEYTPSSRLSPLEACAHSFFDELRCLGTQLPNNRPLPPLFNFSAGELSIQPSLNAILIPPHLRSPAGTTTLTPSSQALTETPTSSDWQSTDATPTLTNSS
Chain of CMET (P08581 25-1390): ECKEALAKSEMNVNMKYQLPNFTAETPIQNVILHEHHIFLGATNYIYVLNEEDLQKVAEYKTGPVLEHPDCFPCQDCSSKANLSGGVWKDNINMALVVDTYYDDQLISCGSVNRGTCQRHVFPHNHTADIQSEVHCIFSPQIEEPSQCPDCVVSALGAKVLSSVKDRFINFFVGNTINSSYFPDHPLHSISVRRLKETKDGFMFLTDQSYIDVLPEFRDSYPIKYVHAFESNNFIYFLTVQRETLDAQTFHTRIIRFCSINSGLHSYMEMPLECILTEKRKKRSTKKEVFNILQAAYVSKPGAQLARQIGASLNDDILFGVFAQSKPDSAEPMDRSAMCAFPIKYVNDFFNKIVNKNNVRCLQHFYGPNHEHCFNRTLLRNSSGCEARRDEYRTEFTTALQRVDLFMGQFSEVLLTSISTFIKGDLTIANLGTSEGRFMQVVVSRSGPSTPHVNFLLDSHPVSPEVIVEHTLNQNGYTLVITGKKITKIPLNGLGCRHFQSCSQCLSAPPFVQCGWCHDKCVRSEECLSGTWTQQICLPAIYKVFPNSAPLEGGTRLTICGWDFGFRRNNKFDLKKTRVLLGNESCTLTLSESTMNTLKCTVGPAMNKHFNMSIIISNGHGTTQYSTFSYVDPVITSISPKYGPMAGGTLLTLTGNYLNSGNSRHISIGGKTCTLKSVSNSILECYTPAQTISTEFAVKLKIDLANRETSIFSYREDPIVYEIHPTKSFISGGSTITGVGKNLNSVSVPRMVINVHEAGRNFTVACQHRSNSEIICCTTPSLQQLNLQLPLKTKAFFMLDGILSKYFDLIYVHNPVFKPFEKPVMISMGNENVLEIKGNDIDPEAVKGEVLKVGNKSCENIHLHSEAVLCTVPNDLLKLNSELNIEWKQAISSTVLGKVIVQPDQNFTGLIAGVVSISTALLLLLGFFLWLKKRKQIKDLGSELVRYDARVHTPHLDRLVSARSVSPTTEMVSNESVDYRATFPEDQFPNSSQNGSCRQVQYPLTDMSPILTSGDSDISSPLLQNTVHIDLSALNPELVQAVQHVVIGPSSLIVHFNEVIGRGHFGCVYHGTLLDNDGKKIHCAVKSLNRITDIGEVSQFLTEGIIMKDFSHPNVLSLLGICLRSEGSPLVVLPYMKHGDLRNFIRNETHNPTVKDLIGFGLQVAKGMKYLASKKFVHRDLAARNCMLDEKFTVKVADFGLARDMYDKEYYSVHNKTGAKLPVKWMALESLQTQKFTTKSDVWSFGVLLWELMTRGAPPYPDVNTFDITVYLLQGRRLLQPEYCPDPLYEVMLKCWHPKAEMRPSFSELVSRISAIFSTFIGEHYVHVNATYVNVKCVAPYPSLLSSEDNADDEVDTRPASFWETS

Which results are given for `C=CC(=O)Nc1cccc(Nc2nc(Nc3ccc(N4CCN(C)CC4)nc3OC)ncc2C(F)(F)F)c1` [ES-072]?
IC50 (GSK3α; as worded in response to reviewers): > 40 µM; IC50 (GSK3α; single independent tests): > 40 µM; IC50 (CMET): > 10 µM; ES/NC (PD-L1 phosphorylation site S79) (PD-L1): 1.28; ES/NC (PD-L1 phosphorylation site S93) (PD-L1): 1.52; ES/NC (PD-L1 phosphorylation site S170) (PD-L1): 0.00; ES/NC (PD-L1 phosphorylation site S176) (PD-L1): 0.00; ES/NC (PD-L1 phosphorylation site S279) (PD-L1): 5.00; ES/NC (PD-L1 phosphorylation site S283) (PD-L1): 2.06; ES/NC (PD-L1 phosphorylation site T290) (PD-L1): 1.95
